Measured values from patent publication US12612375B2, “Antimicrobial and anticancer agents” (Persevere Therapeutics Inc., priority 2021, dated 2026).

Legend:
Enterococcus faecium = assay: Agar diffusion test Enterococcus faecium; assay type: cell-based; settings: 10 mm disk with 10 mg test substance, 37° C., 24 hours
Excerpt: (§1) Different gram-negative and gram-positive bacteria are used for testing the compounds of the present disclosure: Staphylococcus aureus and Escherichia coli (ATCC-LGC Standards GmbH, Wesel, Germany); Enterococcus faecilis, Enterococcus faecilum, Staphylococcus aureus, Clostridium difficile, Acineobacter baumannii, Pseudomonas aeruginosa, Stenotrophomonas maltophilia, Citrobacter freundii, Escherichia coli, Klebsiella pneomoniae, Morganelle morganii, Bactroides fragilis, Helicobacter pylori (fresh clinical isolates). All isolates are cultured with Müller-Hinton-Agar excluding Bacteroides fragilis and Helcobacter pylori. Bacteroides fragilis is cultured with Müller-Hinton-Agar containing 5% Horseblood and 20 mg/l ß-NAD. Helicobacter pylori is cultured with Chocolat PolyViteX-Agar.
(§2) The antibacterial potential of compounds is examined by the Kirby-Bauer disc diffusion test using Müller-Hington agar. A 10 mm diameter disk soaked in 150 μl of distilled water containing 10 mg of the test substance was placed on Müller-Hington agar (bioMeieux, Geneve, Switzerland) holding a pre-lawn of the according test bacteria. The plates are incubated at 37° C. for 24 hours and the zone of inhibition is recorded. Culture media and sterilized distilled water were used as a control. N-acetylcysteine (NAC) is used as an anti-oxidant control.

Escherichia coli = assay: Agar diffusion test Escherichia coli; assay type: cell-based; settings: for Inhibition Zone: Escherichia coli (ATCC 8739), gram-negative
Excerpt: as §1, §2

[1] = previously reported; cited from earlier work
[2] = tested on: Staphylococcus aureus (MRSA); assay: Agar diffusion test Staphylococcus aureus (MRSA); assay type: cell-based; settings: for Inhibition Zone: Staphylococcus aureus (MRSA Nr. 2065), gram-positive
Excerpt: as §1, §2

[3] = tested on: all tested cancer cell lines (MDA MB 468 highest, MCC 14.2 lowest response); assay: BrdU assay for cell proliferation, all tested cancer cell lines (Example 2); assay type: cell-based, human; settings: FIG. 3
Method: Cells are seeded individually to obtain a sub confluent monolayer in a 96 well plate format and are incubated for 24 hours prior to treatment. To examine the dose response regarding their anti-proliferative activity, cells are incubated with increasing concentrations (100, 200, 500, 1000, 1500 and 2000 μmol/l) of all different Oxathiazinane derivates and ddH2O as control for 6 h prior BrdU proliferation assay (5-bromo-2-deoxyuridine)-ELISA (Roche Applied Science, Mannheim, Germany) according to the manufacturer's instructions. […] The amount of synthesized DNA is detected using a microplate absorbance reader measuring at 370 nm with a reference wavelength of 492 nm (ASYS, UVM340, Anthos Mikrosysteme GmbH, Krefeld, Germany). BrdU assays are performed with 8 replicates of three independent experiments with consecutive passages.
(§3) Anti-neoplastic activity of compounds 2289, 2293, and 2296 was determined according to the MTT assay and BrdU assay described above.

MDA MB 468 cells = assay: Cell migration assay (scratch of confluent monolayer); assay type: cell-based, human; settings: 2 to 5 days, compared to untreated control, semi-quantified (FIG. 1)
Method: Cells are plated into the 60-mm dishes to create a confluent monolayer and are incubated for 24 hours allowing cells to adhere and spread. The required number of cells for a confluent monolayer depends on the particular cell type. After creating a scratch of the cell monolayer, the gaparea is examined by phase-contrast-microscopy. Images are captured at the beginning and at regular intervals during cell migration (48, 72, and 120 hours (5 d)) closing the scratch, to semi-quantify the migration rate of the cells.
Cell migration assay: cell migration of compounds 2289, 2244, 2287, 2255, 2256 compared to non-treated control (NK) and positive control (compound 2250). Comparative compounds 2244, 2287, 2255, 2256 have the following structures:
Using cell migration assays, the migration rate of different cancer cell entities under treatment with 2289, negative control and positive control (2250) was semi-quantified.

[4] = tested on: MDA MB 468, HT29, MCC 14.2, Panc TuI; assay: MTT assay for cell viability, all tested cancer cell lines (Example 2); assay type: cell-based, human; settings: FIG. 2
Method: (§4) Cells are seeded individually to obtain a sub confluent monolayer in a 96 well plate format and are incubated for 24 hours prior treatment. To examine a dose response regarding the antineoplastic activity cells are incubated with increasing concentrations (100, 200, 500, 1000, 1500, 2000 μmol/l) of all different Oxathiazinane derivatives and ddH2O as control for 24 and 48 hours. After the exposition time 10 μl MTT (3-(4,5-Dimethylthiazol-2-yl)-2,5-diphenyltetrazoliumbromid) reagent (5 mg/ml) is added and incubated for 2 hours before violet Formazan crystals are dissolved in 100 μl DMSO (Dimethylsulfoxide). Viability of the cells can be analyzed by using a microplate absorbance reader by measuring the OD560 (ASYS, UVM340, Anthos Mikrosystheme GmbH, Germany). The assay is performed using 8 replicates in three independent experiments with consecutive passages.
as §3

Enterococcus faecalis = assay: Agar diffusion test Enterococcus faecalis; assay type: cell-based; settings: 10 mm disk with 10 mg test substance, 37° C., 24 hours
Excerpt: as §1, §2

Solubility in water = assay type: physicochemical; settings: at room temperature
Method: Re-crystallization with, e.g., • Ethanol • Ethyl acetate • Ethyl acetate/light petroleum Physical Properties • Melting range: 79-83° C. • Solubility in water: about 1.5% at room temperature • Melting range: 52-53° C. • Solubility in water: <1.5% at room temperature • Melting range: 74-75° C. • Solubility in water: min. 1% at room temperature

[5] = Human fresh blood stability / half-life at 37° C. in vitro; assay type: in vitro ADME; settings: for human blood stability profile compared to 2250: K2-EDTA human blood; for half-life compared to the half-life of taurolidine / half-life at 256 μM: human; for half-life at 256 μM: blood
Method: The half-life of each of compounds 2289, 2293, and 2296 in human fresh blood was measured at 37° C. in vitro. For 2289 and 2293 into 2250, K2-EDTA human blood was spiked with 2289 or 2293 at 256 μM; 2250 at 26 μM and 2244 at 26 μM (n=1). The pool remained at 37° C. for 20-25 min and then an aliquot was centrifuged (2500 g for at least 5 minutes at 4° C.). After centrifugation the human plasma was collected and immediately frozen at −80° C. This aliquot corresponded to the T0. The remaining pool was aliquoted and kept at 37° C. An aliquot was collected, centrifuged (2500 g for at least 5 minutes at 4° C.) and the recovered plasma was frozen at −80° C. after at least 0.25, 0.5, 1, 6, 8, 24 and 48 hours. Stability was determined by measuring the 2289 and 2293 peak area at each time point compared to T0. For 2296 into its metabolite 1-hydoxypropane-2-sulfonamide, K2-EDTA human blood was spiked with 2296 at 256 μM and 1-hydroxypropane-2-sulfonamide at 26 μM (n=1). The pool remained at 37° C. for 20-25 min and then an aliquot was centrifuged (2500 g for at least 5 minutes at 4° C.). After centrifugation the human plasma was collected and immediately frozen at −80° C. This aliquot corresponded to the TO. The remaining pool was aliquoted and kept at 37° C. An aliquot was collected, centrifuged (2500 g for at least 5 minutes at 4° C.) and the recovered plasma frozen at −80° C. after at least 0.5, 1, 3, 6, 8 and 24 hours/ Stability was determined by measuring 2296 peak area at each time point compared to T0.

[6] = tested on: Staphylococcus aureus (ATCC 6538); assay: Agar diffusion test Staphylococcus aureus (ATCC 6538); assay type: cell-based; settings: gram-positive
Excerpt: as §1, §2

AsPc1 cells = assay: MTT cytotoxicity assay AsPc1; assay type: cell-based; settings: AsPc1, after 24 h, compared to untreated control (NC), t-test
Method: as §4
A MTT Cytotoxicity assay of the cell line AsPc1 with different oxathiazine derivatives was performed.

[7] = Human fresh blood stability / half-life at 37° C. in vitro; assay type: in vitro ADME; settings: 2296 into 1-hydroxypropane-2-sulfonamide, human blood 37° C., 256 μM, Time 48 h
tumor stem cells = assay: Killing tumor stem cells in tissue culture in vitro; assay type: cell-based
Method: In some embodiments, the taurolidine, taurultam, or a mixture thereof is administered in a tumor stem cell killing composition at a concentration of about 0.01 to about 500 μg/ml. In some embodiments, the taurolidine, taurultam, or a mixture thereof is administered in a tumor stem cell killing composition at a concentration of about 0.1 to about 100 μg/ml. In some embodiments, the taurolidine, taurultam, or a mixture thereof is administered in a tumor stem cell killing effective composition at a concentration of about 10 to about 50 μg/ml. Taurolidine is effective at killing tumor stem cells in tissue culture in vitro at 0.01 μg/ml.

[8] = Escherichia coli, 10 mm disk with 10 mg test substance, 37° C., 24 hours
[9] = Staphylococcus aureus (MRSA), 10 mm disk with 10 mg test substance, 37° C., 24 hours
[10] = 2289 or 2293 spiked at 256 μM into K2-EDTA human blood, 37° C., Time 0 h (T0, after 20-25 min at 37° C.)

| Structure (SMILES) | zone of inhibition at 10000 µg/disc (Escherichia coli; [8]) | zone of inhibition at 10000 µg/disc [2, 9] | Solubility in water (Solubility in water) | human blood stability profile compared to 2250 ([5]; 37° C.) | half-life compared to the half-life of taurolidine [5] | half-life at 256 μM [5] | Inhibition Zone (Escherichia coli) | Inhibition Zone [6] | also measured |
| --- | --- | --- | --- | --- | --- | --- | --- | --- | --- |
| NS(=O)(=O)CCO [Compound 2244] | < 10 mm | – | – | – | – | – | – | – | zone of inhibition at 10000 µg/disc (Enterococcus faecium): < 10 mm |
| O=S1(=O)CCOCN1 [Compound 2250] | – | – | – | – | – | – | – | – | half-life compared to taurolidine [1]: significantly longer half-life; Zone of inhibition [2, 9]: 49.5 mm; reduction of proliferating cells (BrdU) [3]: significant reduction of proliferating cells; migration rate (MDA MB 468 cells): clearly inhibited; reduction of living cells (cell viability, MTT) [4]: significant reduction of living cells; Zone of inhibition (Escherichia coli; [8]): 24.5 mm; Zone of inhibition (Enterococcus faecalis): 42.5 mm) |
| CN1COCCS1(=O)=O [Compound 2255] | < 10 mm | < 10 mm | – | – | – | – | – | – | – |
| CC1NS(=O)(=O)CCO1 (centres unmarked) [Compound 2256] | < 10 mm | < 10 mm | – | – | – | – | – | – | – |
| CC1OCCS(=O)(=O)N1C (centres unmarked) [Compound 2287] | < 10 mm | < 10 mm | – | – | – | – | – | – | – |
| CC(=O)N1COCCS1(=O)=O [Compound 2289] | 18.5 mm | 27.5 mm | about 1.5% | very similar profile | significantly higher | 300 to 360 min | 18.5 mm | 27.5 mm | % Stability [5, 10]: Not stable-; reduction of proliferating cells (BrdU) [3]: significant reduction of proliferating cells; migration rate (MDA MB 468 cells): lower migration rate; reduction of living cells (cell viability, MTT) [4]: significant reduction of living cells |
| CCC(=O)N1COCCS1(=O)=O [Compound 2293] | – | – | < 1.5% | very similar profile | significantly higher | 300 to 360 min | 19.5 mm | 31.5 mm | Inhibition Zone [2]: 32.5 mm; % Stability [5, 10]: Not stable-; concentration from which a significant impact on cell viability is shown (AsPc1 cells): ≥ 500 µM |
| CC1COCNS1(=O)=O (centres unmarked) [Compound 2296] | – | – | ≥ 1% | very similar profile | significantly higher | 300 to 360 min | 23.0 mm | 38.0 mm | Inhibition Zone [2]: 43.0 mm; % Stability ([5]; 2296 into 1-hydroxypropane-2-sulfonamide, human blood 37° C., 256 μM, Time 0 h): 100%; % Stability ([5]; 2296 into 1-hydroxypropane-2-sulfonamide, human blood 37° C., 256 μM, Time 0.5 h): 97%; % Stability ([5]; 2296 into 1-hydroxypropane-2-sulfonamide, human blood 37° C., 256 μM, Time 1 h): 92%; % Stability ([5]; 2296 into 1-hydroxypropane-2-sulfonamide, human blood 37° C., 256 μM, Time 3 h): 71%; % Stability ([5]; 2296 into 1-hydroxypropane-2-sulfonamide, human blood 37° C., 256 μM, Time 6 h): 52%; % Stability ([5]; 2296 into 1-hydroxypropane-2-sulfonamide, human blood 37° C., 256 μM, Time 8 h): 42%; % Stability ([5]; 2296 into 1-hydroxypropane-2-sulfonamide, human blood 37° C., 256 μM, Time 24 h): 7%; % Stability [7]: 1% |
| O=S1(=O)CCN(CN2CCS(=O)(=O)NC2)CN1 [taurolidine] | – | – | – | – | – | – | – | – | half-life [1]: about 30 minutes; concentration effective at killing tumor stem cells (tumor stem cells): 0.01 µg/mL |
